Measured values from the NIST ThermoML archive (doi:10.1016/j.fluid.2017.07.020).
“And” between values parts separate entries of the source, which are not always exact repeats. Identical values can stand only once. ± gives the expanded uncertainty stated by the source.

Assays:
[1] = Molar enthalpy of transition or fusion; details: DSC
[2] = solid-solid phase transition pressure; details: Crystal 2, DTA

BrC12CC3CC(CC(C3)C1)C2 [1-bromotricyclo[3.3.1.1(3,7)]decane]
Details | Molar enthalpy of transition or fusion [kcal/mol] | phase transition pressure
286.4 K, Crystal 3, DTA | – | 36100 ± 18000 kPa
292.5 K, Crystal 3, DTA | – | 71200 ± 17000 kPa
299.2 K, Crystal 3, DTA | – | 93300 ± 16000 kPa
310.5 K, Crystal 3, DTA | – | 122500 ± 24000 kPa
310.7 K, Crystal 2, DTA | – | 31100 ± 4700 kPa
311.5 K, Crystal 3, DTA | – | 117100 ± 24000 kPa
316.4 K, Crystal 3, DTA | – | 151900 ± 140000 kPa
316.8 K, Crystal 3, DTA | – | 133700 ± 140000 kPa
317.9 K, Crystal 2, DTA | – | 48600 ± 7300 kPa
318.5 K, Crystal 2, DTA | – | 49700 ± 7500 kPa
321.1 K, Crystal 2, DTA | – | 48800 ± 7300 kPa
322.6 K, Crystal 2, DTA | – | 50400 ± 7600 kPa
323 K, Crystal 2, DTA | – | 40400 ± 6100 kPa
323.1 K, Crystal 2, DTA | – | 50000 ± 7500 kPa
323.9 K, Crystal 2, DTA | – | 49000 ± 7400 kPa
324.1 K, Crystal 2, DTA | – | 51800 ± 7800 kPa
324.7 K, Crystal 2, DTA | – | 45700 ± 6900 kPa
325.2 K, Crystal 2, DTA | – | 50900 ± 7600 kPa
325.4 K, Crystal 3, DTA | – | 151800 ± 52000 kPa
327.5 K, Crystal 3, DTA | – | 184900 ± 30000 kPa
329.6 K, Crystal 2, DTA | – | 72800 ± 11000 kPa
329.9 K, Crystal 2, DTA | – | 72400 ± 11000 kPa
330.6 K, Crystal 3, DTA | – | 175700 ± 33000 kPa
332 K, Crystal 2, DTA | – | 74500 ± 11000 kPa
333.7 K, Crystal 3, DTA | – | 227100 ± 36000 kPa
335.1 K, Crystal 2, DTA | – | 73100 ± 11000 kPa
337 K, Crystal 3, DTA | – | 199700 ± 32000 kPa
337.3 K, Crystal 2, DTA | – | 100700 ± 15000 kPa
337.4 K, Crystal 2, DTA | – | 95400 ± 14000 kPa
337.8 K, Crystal 2, DTA | – | 101000 ± 15000 kPa
342.8 K, Crystal 3, DTA | – | 256100 ± 48000 kPa
343.5 K, Crystal 2, DTA | – | 118200 ± 18000 kPa
347.6 K, Crystal 2, DTA | – | 128300 ± 19000 kPa
348.3 K, Crystal 2, DTA | – | 126000 ± 19000 kPa
351.4 K, Crystal 2, DTA | – | 126900 ± 19000 kPa
355.9 K, Crystal 2, DTA | – | 138100 ± 21000 kPa
358.3 K, Crystal 2, DTA | – | 153800 ± 23000 kPa
359 K, Crystal 2, DTA | – | 154300 ± 23000 kPa
362.3 K, Crystal 2, DTA | – | 155500 ± 23000 kPa
363.9 K, Crystal 2, DTA | – | 177800 ± 27000 kPa
369 K, Crystal 2, DTA | – | 182300 ± 27000 kPa
369.7 K, Crystal 2, DTA | – | 189300 ± 28000 kPa
372.5 K, Crystal 2, DTA | – | 178800 ± 27000 kPa
374.4 K, Crystal 2, DTA | – | 205600 ± 31000 kPa
377.4 K, Crystal 2, DTA | – | 205400 ± 31000 kPa
381.6 K, Crystal 2, DTA | – | 204700 ± 31000 kPa and 234100 ± 35000 kPa
382.7 K, Crystal 2, DTA | – | 224800 ± 34000 kPa
383.4 K, Crystal 2, DTA | – | 232100 ± 35000 kPa
389.6 K, Crystal 2, DTA | – | 255000 ± 38000 kPa
390.9 K, Crystal 2, DTA | – | 255000 ± 38000 kPa
392.5 K, Crystal 2, DTA | – | 261500 ± 39000 kPa
404.9 K, Crystal 1, DTA | – | 25800 ± 3900 kPa
406 K, Crystal 1, DTA | – | 32500 ± 4900 kPa
411.8 K, Crystal 1, DTA | – | 61300 ± 9200 kPa
414.6 K, Crystal 1, DTA | – | 56200 ± 8400 kPa
415.8 K, Crystal 1, DTA | – | 78400 ± 12000 kPa
436.7 K, Crystal 1, DTA | – | 160000 ± 24000 kPa
[1], Crystal 1 | 0.777 ± 0.1 | –
[1], Crystal 2 | 1.6 ± 0.174 | –
[1], Crystal 3 | 0.301 ± 0.0382 | –

Details | Triple point temperature [K]
Crystal 1, DTA | 392 ± 3
Crystal 2, DTA | 310.8 ± 2
Crystal 3, DTA | 282.6 ± 2

ClC12CC3CC(CC(C3)C1)C2 [1-chlorotricyclo[3.3.1.1(3,7)]decane]
Details | Triple point temperature [K]
Crystal 1, DSC | 438.6 ± 3.1
Crystal 2, DTA | 249.5 ± 2

Details | Molar enthalpy of transition or fusion [kcal/mol] | solid-solid phase transition pressure [kPa]
[1], Crystal 1 | 1.01 ± 0.127 | –
[1], Crystal 2 | 1.42 ± 0.151 | –
[2], 250.4 K | – | 400
[2], 254.3 K | – | 15100 ± 14000
[2], 260.5 K | – | 47600 ± 13000
[2], 265 K | – | 52500 ± 11000
[2], 270.3 K | – | 73100 ± 18000
[2], 274.4 K | – | 98800 ± 19000
[2], 278.5 K | – | 104200 ± 17000
[2], 284.7 K | – | 123100 ± 21000
[2], 292.2 K | – | 153000 ± 87000
[2], 292.3 K | – | 150200 ± 87000
[2], 298.4 K | – | 173600 ± 31000
[2], 300.5 K | – | 199600 ± 32000
[2], 306.2 K | – | 204000 ± 56000
[2], 307 K | – | 216500 ± 57000
[2], 311.5 K | – | 221600 ± 34000
[2], 313.1 K | – | 237900 ± 46000
[2], 313.7 K | – | 242200 ± 36000
[2], 315.2 K | – | 237700 ± 36000
[2], 317.3 K | – | 241000 ± 40000
[2], 319.5 K | – | 261500 ± 46000
[2], 320.7 K | – | 266800 ± 42000
